# Measured values: patent US20190234936A1 (priority 2016, published 2019)
# System: human neutrophils
# Type: cell-based
smiles,measurement,value
"CCCCCCCCCCCCCC(=O)O[C@@H]1[C@@H](C)[C@@]2(O)[C@@H](C=C(CO)C[C@]3(O)C(=O)C(C)=C[C@@H]23)[C@@H]2C(C)(C)[C@]12OC(C)=O [PMA, phorbol 12-myristate 13-acetate]",NET formation (DNA staining),abundant lattices of extracellular NET-DNA filaments
